# Reference: ChEMBL document CHEMBL4316626, “N-Acyl pyrazoles: Effective and tunable inhibitors of serine hydrolases” (Bioorg Med Chem, 2019)
# Experiments:
# [1] = Inhibition of recombinant rat FAAH deltaTM mutant expressed in Escherichia coli using 14C-labeled oleamide as substrate preincubated for 3 hrs followed by substrate addition and measured by TLC based Dixon-plot analysis; conditions: read-out: Ki(app)
# [2] = molecular target: T1, Fatty-acid amide hydrolase 1 (Mus musculus, UniProt O08914); assay: Inhibition of FP-rhodamine probe binding to FAAH in mouse brain membrane proteome preincubated for 1 hr followed by FP-rhodamine addition and measured after 30 mins by SDS-PAGE based fluorescence assay; assay type: cell membranes
# T1 sequence (O08914 whole entry): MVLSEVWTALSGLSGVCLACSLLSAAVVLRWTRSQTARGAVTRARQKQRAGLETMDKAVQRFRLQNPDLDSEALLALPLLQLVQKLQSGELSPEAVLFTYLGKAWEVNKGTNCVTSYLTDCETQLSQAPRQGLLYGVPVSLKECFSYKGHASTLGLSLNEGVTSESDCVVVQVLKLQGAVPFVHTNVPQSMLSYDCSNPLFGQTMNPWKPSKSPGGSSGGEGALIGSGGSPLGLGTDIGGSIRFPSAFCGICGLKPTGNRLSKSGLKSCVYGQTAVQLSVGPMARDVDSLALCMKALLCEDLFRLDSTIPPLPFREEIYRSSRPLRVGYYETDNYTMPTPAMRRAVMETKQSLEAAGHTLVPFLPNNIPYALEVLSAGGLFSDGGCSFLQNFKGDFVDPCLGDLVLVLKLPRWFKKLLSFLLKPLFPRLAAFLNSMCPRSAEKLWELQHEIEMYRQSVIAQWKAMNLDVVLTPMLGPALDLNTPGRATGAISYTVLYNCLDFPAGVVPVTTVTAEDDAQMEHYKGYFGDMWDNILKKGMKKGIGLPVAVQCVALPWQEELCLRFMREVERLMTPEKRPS
# Monoglyceride lipase = molecular target: T2, Monoglyceride lipase (Mus musculus, UniProt O35678); assay: Inhibition of FP-rhodamine probe binding to MGLL in mouse brain membrane proteome preincubated for 1 hr followed by FP-rhodamine addition and measured after 30 mins by SDS-PAGE based fluorescence assay; assay type: cell membranes
# T2 sequence (O35678 whole entry): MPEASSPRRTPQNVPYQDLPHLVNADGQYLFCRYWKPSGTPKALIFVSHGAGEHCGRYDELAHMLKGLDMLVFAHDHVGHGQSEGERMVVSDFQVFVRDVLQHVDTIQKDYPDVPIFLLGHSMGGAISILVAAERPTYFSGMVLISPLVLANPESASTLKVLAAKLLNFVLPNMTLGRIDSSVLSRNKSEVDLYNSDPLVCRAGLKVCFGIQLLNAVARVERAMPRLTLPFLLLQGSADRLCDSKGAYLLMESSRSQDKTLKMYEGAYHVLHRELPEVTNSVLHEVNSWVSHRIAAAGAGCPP
# [3] = molecular target: T3, Neutral cholesterol ester hydrolase 1 (Mus musculus, UniProt Q8BLF1); assay: Inhibition of FP-rhodamine probe binding to KIAA1363 in mouse brain membrane proteome preincubated for 1 hr followed by FP-rhodamine addition and measured after 30 mins by SDS-PAGE based fluorescence assay; assay type: cell membranes
# T3 sequence (Q8BLF1 whole entry): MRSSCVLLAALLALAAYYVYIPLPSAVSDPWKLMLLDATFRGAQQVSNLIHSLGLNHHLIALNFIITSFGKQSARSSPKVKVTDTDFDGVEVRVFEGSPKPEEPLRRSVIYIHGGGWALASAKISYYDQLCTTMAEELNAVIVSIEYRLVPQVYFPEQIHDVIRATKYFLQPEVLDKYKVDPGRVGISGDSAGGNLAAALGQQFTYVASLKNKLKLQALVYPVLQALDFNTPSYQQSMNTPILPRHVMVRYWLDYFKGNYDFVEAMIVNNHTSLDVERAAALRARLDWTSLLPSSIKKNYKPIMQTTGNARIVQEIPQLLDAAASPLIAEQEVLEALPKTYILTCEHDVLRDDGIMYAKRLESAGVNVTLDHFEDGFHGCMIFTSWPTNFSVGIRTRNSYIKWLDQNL
# [4] = molecular target: T4, Monoacylglycerol lipase ABHD6 (Mus musculus, UniProt Q8R2Y0); assay: Inhibition of FP-rhodamine probe binding to ABHD6 in mouse brain membrane proteome preincubated for 1 hr followed by FP-rhodamine addition and measured after 30 mins by SDS-PAGE based fluorescence assay; assay type: cell membranes
# T4 sequence (Q8R2Y0 whole entry): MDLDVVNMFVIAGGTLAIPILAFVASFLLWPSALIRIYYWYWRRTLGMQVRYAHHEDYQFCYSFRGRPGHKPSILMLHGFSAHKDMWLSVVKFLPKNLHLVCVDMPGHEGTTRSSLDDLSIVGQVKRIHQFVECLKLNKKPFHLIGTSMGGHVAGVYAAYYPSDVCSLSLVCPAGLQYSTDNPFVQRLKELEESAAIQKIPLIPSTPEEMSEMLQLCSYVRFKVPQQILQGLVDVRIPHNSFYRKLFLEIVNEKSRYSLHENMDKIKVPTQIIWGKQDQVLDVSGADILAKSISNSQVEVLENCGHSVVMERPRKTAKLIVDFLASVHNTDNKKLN
Compound,Ki [1] [µM],IC50 [2] [µM],IC50 (Monoglyceride lipase) [µM],IC50 [3] [µM],IC50 [4] [µM]
CN(CCN(C)C(=O)n1cccn1)Cc1ccc(OCc2ccccc2)cc1,0.013,0.51,0.66,> 100,0.53
CN(CCN(C)C(=O)n1cccn1)Cc1cccc(OCc2ccccc2)c1,0.0066,3,4.6,> 100,5.5
Cc1cnn(C(=O)N(C)CCN(C)Cc2ccc(OCc3ccccc3)cc2)c1,0.07,8.7,1.2,> 100,1.2
CN(CCN(C)C(=O)n1cc(C#N)cn1)Cc1ccc(OCc2ccccc2)cc1,0.003,0.12,0.26,> 100,0.32
N#Cc1cnn(C(=O)NCc2ccc(OC(c3ccccc3)c3ccccc3)cc2)c1,80,> 100,> 100,> 100,
O=C(N1CCCCC1)n1cccn1,0.75,1,6.6,> 100,5
O=C(N1CCN(C(c2ccc3ccccc3c2)c2ccc3ccccc3c2)CC1)n1cccn1,,> 100,1.8,> 100,> 100
N#Cc1cnn(C(=O)N2CCCN(Cc3ccc(OCc4ccccc4)cc3)CC2)c1,0.0015,< 0.01,10,> 100,0.085
CN(CCN(C)C(c1ccc(OCc2ccccc2)cc1)c1ccc(OCc2ccccc2)cc1)C(=O)n1cccn1,,> 1000,> 1000,> 1000,> 1000
Cc1cnn(C(=O)NCc2ccc(OCc3ccccc3)cc2)c1,0.3,1.2,1,> 100,
CN(CCN(C)C(=O)n1cc(C#N)cn1)Cc1cccc(OCc2ccccc2)c1,0.0013,0.19,0.59,> 100,1.1
O=C(NCc1ccc(OCc2ccccc2)cc1)n1cccn1,0.1,0.8,0.9,> 100,
N#Cc1cnn(C(=O)NCc2ccc(OCc3ccccc3)cc2)c1,0.017,0.06,0.1,> 100,
O=C(N1CCCN(Cc2ccc(OCc3ccccc3)cc2)CC1)n1cccn1,0.034,0.45,10,> 100,0.96
O=C(N1CCN(C(c2ccc(OCc3ccccc3)cc2)c2ccc(OCc3ccccc3)cc2)CC1)n1cccn1,73,> 100,3.9,> 100,> 100
Cc1cnn(C(=O)N2CCN(C(c3ccc4ccccc4c3)c3ccc4ccccc4c3)CC2)c1,,> 100,0.26,> 100,> 100
Cc1cnn(C(=O)N2CCCCC2)c1,> 1,2.2,9.2,> 100,1.1
Cc1cnn(C(=O)N(C)CCN(C)C(c2ccc(OCc3ccccc3)cc2)c2ccc(OCc3ccccc3)cc2)c1,140,> 1000,> 1000,> 1000,> 1000
CN(CCN(C)C(c1ccc(OCc2ccccc2)cc1)c1ccc(OCc2ccccc2)cc1)C(=O)n1cc(C#N)cn1,,> 1000,32,> 1000,> 1000
Cc1cnn(C(=O)N(C)CCN(C)Cc2cccc(OCc3ccccc3)c2)c1,0.035,9,4.1,> 100,8.3
O=C(NCc1ccc(OC(c2ccccc2)c2ccccc2)cc1)n1cccn1,140,> 100,> 100,> 100,
Cc1cnn(C(=O)NCc2ccc(OC(c3ccccc3)c3ccccc3)cc2)c1,220,> 100,> 100,> 100,
